What was measured:
Assay in all cases: stopped-flow UV-vis
Assay type in all cases: biochemical
Settings in all cases: oxidant reacting with Cu(I) enzyme, no polysaccharide substrate; 100 uM enzyme, 500 uM oxidant
CvAA9 = biological target: T1, CvAA9 (Achaetomiella virescens, UniProt A0A223GEC9)
T1 construct: gene AA9A; mature secreted AA9 LPMO, Cu(I) form; host and construct only in supplement

TaAA9 = biological target: T2, TaAA9 (Thermoascus aurantiacus, UniProt G3XAP7)
T2 construct: gene LPMO9A; mature secreted AA9 LPMO, Cu(I) form; host and construct only in supplement
T2 sequence (G3XAP7 whole entry): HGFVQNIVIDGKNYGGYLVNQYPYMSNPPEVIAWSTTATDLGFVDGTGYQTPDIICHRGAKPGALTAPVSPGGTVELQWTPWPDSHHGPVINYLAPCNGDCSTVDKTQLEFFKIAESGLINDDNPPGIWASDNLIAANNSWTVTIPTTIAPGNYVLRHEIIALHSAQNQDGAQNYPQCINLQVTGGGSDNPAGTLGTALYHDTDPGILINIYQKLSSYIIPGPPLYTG

LsAA9 = biological target: T3, LsAA9 (Panus similis, UniProt A0A0S2GKZ1)
T3 construct: gene LPMO9A; mature secreted AA9 LPMO, Cu(I) form; expressed in Escherichia coli (fungal host also compared); details in supplement
T3 sequence (A0A0S2GKZ1 20-254): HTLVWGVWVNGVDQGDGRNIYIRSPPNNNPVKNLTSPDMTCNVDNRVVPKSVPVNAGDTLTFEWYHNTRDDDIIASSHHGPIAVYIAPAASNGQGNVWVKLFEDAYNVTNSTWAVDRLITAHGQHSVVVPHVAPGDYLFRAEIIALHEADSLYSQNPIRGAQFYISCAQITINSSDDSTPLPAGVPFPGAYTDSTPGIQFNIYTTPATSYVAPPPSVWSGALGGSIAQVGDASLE

T1 sequence (A0A223GEC9 23-274): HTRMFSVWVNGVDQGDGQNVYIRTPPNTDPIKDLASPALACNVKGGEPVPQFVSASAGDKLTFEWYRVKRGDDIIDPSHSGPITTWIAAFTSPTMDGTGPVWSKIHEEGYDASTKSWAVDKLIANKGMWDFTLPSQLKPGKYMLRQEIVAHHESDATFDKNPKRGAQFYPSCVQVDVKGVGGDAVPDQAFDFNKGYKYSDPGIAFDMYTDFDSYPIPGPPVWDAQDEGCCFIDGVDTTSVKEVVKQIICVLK

O=C(OO)c1cccc(Cl)c1 [m-CPBA, meta-chloro-perbenzoic acid]
stopped-flow UV-vis (CvAA9): transient intermediates generated upon oxidation of CuI–TaAA9, CvAA9, and LsAA9 with mCPBA
stopped-flow UV-vis (TaAA9): transient intermediates generated upon oxidation of CuI–TaAA9, CvAA9, and LsAA9 with mCPBA
stopped-flow UV-vis (LsAA9): transient intermediates generated upon oxidation of CuI–TaAA9, CvAA9, and LsAA9 with mCPBA
